Laboratory results published in patent US20250170114A1, “METHODS OF TREATMENT USING T-TYPE CALCIUM CHANNEL MODULATORS” (Praxis Precision Medicines, Inc., priority 2022, published 2025).

Test system: participants with ET
Assay: Phase 2 trial: treatment-emergent adverse events (TEAEs)
Type: in vivo
Conditions: for SOC Nervous System Disorders / SOC Psychiatric Disorders / SOC Vascular Disorders / Any TEAE / PT Cognitive disorder / PT Constipation / PT Dizziness / PT Fatigue / PT Insomnia / SOC Gastrointestinal Disorders / SOC General Disorders and Administration Site Conditions / SOC Musculoskeletal and Connective Tissue Disorders: Part B
From the text: Part A of the clinical trial was open-label and assessed the safety and tolerability of the study drug, as well as the overall magnitude and pattern of change in ET severity.
Part B of the clinical trial consisted of both an open-label titration phase and a randomized, double-blind, placebo-controlled withdrawal phase. Part B assessed the safety and tolerability of the study drug, as well as the overall magnitude and pattern of change in ET severity and the duration of that effect. […] In the randomized, double-blind, placebo-controlled withdrawal phase, participants were either maintained on their final open-label dose or switched to placebo for an additional 14 days (Days 43 to 56).
Key safety measures included clinical laboratory evaluations, 12-lead ECG, C-SSRS, and vital signs. Key efficacy assessments included the TETRAS Performance subscale, TETRAS Upper Limb using accelerometry, CGI, and PGI-C. Blood samples were obtained for the determination of study drug plasma concentrations using a validated bioanalytical method and may also be used for method development and/or metabolite characterization.
On Day 1, participants received a 20 mg dose of study drug on an empty stomach (at least 1 hour before breakfast). Participants remained in a clinical setting under medical observation for approximately 6 hours. TETRAS Performance assessments were performed before dosing and 6 hours (±2) post-dose. For dosing on Day 2 through Day 41, participants were instructed to dose QAM at least 1 hour before breakfast at home. Participants continued taking study drug 20 mg QAM at home through Day 3. […] On Day 4, participants escalated to 40 mg QAM through Day 7, when they returned to the clinic for safety assessments and efficacy testing. On Day 8, participants escalated to 60 mg QAM through Day 14. […] On Day 15, participants escalated to 80 mg QAM through Day 21, when they returned to the clinic for safety assessments and efficacy testing. On Day 22, participants escalated to 100 mg QAM through Day 28. […] On Day 29, participants escalated to 120 mg QAM through Day 42, when they returned to the clinic for safety assessments and efficacy testing. The dose on Day 42 was taken in the clinic. On Day 35, participants received a telephone call from site staff to inquire about AEs and concomitant medications. On Day 41, participants completed a TETRAS Performance Upper Limb assessment via a telehealth visit. […] Participants could only change to a lower dose level once, and no dose changes were allowed to occur after Day 36.
In both phases, key safety measures included clinical laboratory evaluations, 12-lead ECG, C-SSRS, and vital signs. Key efficacy assessments included the TETRAS Performance subscale, TETRAS Upper Limb using accelerometry, CGI, PGI-C, TETRAS ADL Subscale, QUEST, BDI-II, and BAI. Blood samples were obtained for the determination of study drug and metabolite plasma concentrations.

[1] = open-label titration phase of Part B
[2] = randomized-withdrawal phase of Part B, participants receiving study drug

CC(C)(C)NC(=O)CN1CCC(CNC(=O)c2cc(F)cc(Cl)c2)CC1.Cl [Study drug]
SOC Nervous System Disorders (40 mg, N = 15): 4 n (%)
SOC Psychiatric Disorders (40 mg, N = 15): 2 n (%)
SOC Vascular Disorders (40 mg, N = 15): 0 n (%)
Any TEAE (60 mg, N = 12): 8 n (%)
PT Cognitive disorder (60 mg, N = 12): 1 n (%)
PT Constipation (60 mg, N = 12): 0 n (%)
PT Dizziness (60 mg, N = 12): 2 n (%)
PT Fatigue (60 mg, N = 12): 2 n (%)
PT Insomnia (60 mg, N = 12): 0 n (%)
SOC Gastrointestinal Disorders (60 mg, N = 12): 0 n (%)
SOC General Disorders and Administration Site Conditions (60 mg, N = 12): 3 n (%)
SOC Musculoskeletal and Connective Tissue Disorders (60 mg, N = 12): 2 n (%)
SOC Nervous System Disorders (60 mg, N = 12): 8 n (%)
SOC Psychiatric Disorders (60 mg, N = 12): 1 n (%)
SOC Vascular Disorders (60 mg, N = 12): 2 n (%)
Any TEAE (80 mg, N = 10): 4 (40.0) n (%)
PT Cognitive disorder (80 mg, N = 10): 0 n (%)
PT Constipation (80 mg, N = 10): 1 (10.0) n (%)
PT Dizziness (80 mg, N = 10): 0 n (%)
PT Fatigue (80 mg, N = 10): 0 n (%)
PT Insomnia (80 mg, N = 10): 0 n (%)
SOC Gastrointestinal Disorders (80 mg, N = 10): 2 (20.0) n (%)
SOC General Disorders and Administration Site Conditions (80 mg, N = 10): 0 n (%)
SOC Musculoskeletal and Connective Tissue Disorders (80 mg, N = 10): 0 n (%)
SOC Nervous System Disorders (80 mg, N = 10): 2 (20.0) n (%)
SOC Psychiatric Disorders (80 mg, N = 10): 0 n (%)
SOC Vascular Disorders (80 mg, N = 10): 0 n (%)
Any TEAE (100 mg, N = 9): 1 (11.1) n (%)
PT Cognitive disorder (100 mg, N = 9): 0 n (%)
PT Constipation (100 mg, N = 9): 1 (11.1) n (%)
PT Dizziness (100 mg, N = 9): 0 n (%)
PT Fatigue (100 mg, N = 9): 0 n (%)
PT Insomnia (100 mg, N = 9): 0 n (%)
SOC Gastrointestinal Disorders (100 mg, N = 9): 1 (11.1) n (%)
SOC General Disorders and Administration Site Conditions (100 mg, N = 9): 0 n (%)
SOC Musculoskeletal and Connective Tissue Disorders (100 mg, N = 9): 0 n (%)
SOC Nervous System Disorders (100 mg, N = 9): 0 n (%)
SOC Psychiatric Disorders (100 mg, N = 9): 0 n (%)
SOC Vascular Disorders (100 mg, N = 9): 0 n (%)
Any TEAE (120 mg, N = 9): 3 (33.3) n (%)
PT Cognitive disorder (120 mg, N = 9): 0 n (%)
PT Constipation (120 mg, N = 9): 1 (11.1) n (%)
PT Dizziness (120 mg, N = 9): 0 n (%)
PT Fatigue (120 mg, N = 9): 0 n (%)
PT Insomnia (120 mg, N = 9): 0 n (%)
SOC Gastrointestinal Disorders (120 mg, N = 9): 1 (11.1) n (%)
SOC General Disorders and Administration Site Conditions (120 mg, N = 9): 0 n (%)
SOC Musculoskeletal and Connective Tissue Disorders (120 mg, N = 9): 0 n (%)
SOC Nervous System Disorders (120 mg, N = 9): 1 (11.1) n (%)
SOC Psychiatric Disorders (120 mg, N = 9): 1 (11.1) n (%)
SOC Vascular Disorders (120 mg, N = 9): 0 n (%)
Any TEAE (Overall, N = 17): 15 n (%)
PT Cognitive disorder (Overall, N = 17): 4 n (%)
PT Constipation (Overall, N = 17): 6 n (%)
PT Dizziness (Overall, N = 17): 6 n (%)
PT Fatigue (Overall, N = 17): 3 n (%)
PT Insomnia (Overall, N = 17): 3 n (%)
SOC Gastrointestinal Disorders (Overall, N = 17): 8 n (%)
SOC General Disorders and Administration Site Conditions (Overall, N = 17): 5 n (%)
SOC Musculoskeletal and Connective Tissue Disorders (Overall, N = 17): 3 n (%)
SOC Nervous System Disorders (Overall, N = 17): 12 n (%)
SOC Psychiatric Disorders (Overall, N = 17): 4 n (%)
SOC Vascular Disorders (Overall, N = 17): 2 n (%)
severity of treatment emergent adverse events (TEAEs) (Phase 2 trial overall): mild to moderate
discontinuation of participants during the titration period (accelerated titration regimen): a third
overall safety and tolerability (doses up to 120 mg): generally safe and well tolerated
Drug-related TEAE cognitive disorder [1]: 4 participants
Drug-related TEAE dizziness [1]: 6 participants
Drug-related TEAE paraesthesia [1]: 2 participants
participants experiencing TEAEs considered related to study drug [1]: 70.6%
participants who experienced at least 1 TEAE [1]: 88.2%
serious adverse event (SAE) experienced (open-label titration phase of Part B, considered unrelated to study drug): One mild SAE of cyst
participants who experienced TEAEs (randomized withdrawal phase of Part B, study drug group): 16.7%
ongoing AE constipation that had emerged during open-label titration [2]: 3 participants
ongoing AE photosensitivity/photophobia that had emerged during open-label titration [2]: 2 participants
